Assay results published in ChEMBL document CHEMBL1201862, “PubChem BioAssay data set” (2004).
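These data come from cells grown in 96-well plates and exposed to compound for 48 hours at five concentrations. GI50 is the concentration that inhibits growth by half.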 The source made the active and inactive calls. Cut-off read from the data, not from the text of the source: active = GI50 up to about 1.1 µM and inactive = higher.

Legend:
Experiment in all cases: DTP human tumour cell line panel, 48 h
SK-MEL-5 = tested on: SK-MEL-5
HOP-92 = tested on: HOP-92
OVCAR-4 = tested on: OVCAR-4
OVCAR-8 = tested on: OVCAR-8
M14 = tested on: M14
SF-295 = tested on: SF-295
A549 = tested on: A549
RPMI-8226 = tested on: RPMI-8226
U-251 = tested on: U-251
SF-539 = tested on: SF-539
SNB-19 = tested on: SNB-19
KM12 = tested on: KM12
SW-620 = tested on: SW-620
CCRF-CEM = tested on: CCRF-CEM
UACC-257 = tested on: UACC-257
NCI-H460 = tested on: NCI-H460
Malme-3M = tested on: Malme-3M
SR = tested on: SR

Measured: GI50

COc1nc(=O)n(COC(CO)CN2C(=O)c3ccccc3C2=O)cc1Cc1cccc(OCc2ccccc2)c1 (configuration not stated)
inactive: SK-MEL-5 15.7 µM | HOP-92 21 µM | OVCAR-4 21.8 µM | OVCAR-8 34.5 µM | M14 20.4 µM | SF-295 22.1 µM | A549 23.5 µM | RPMI-8226 18.6 µM | U-251 21.9 µM | SF-539 16.6 µM | SNB-19 29.6 µM | KM12 28.2 µM | SW-620 42.7 µM | CCRF-CEM 24.1 µM

CN1c2ccccc2N(C)C2C1N(C)c1ccccc1N2C (configuration not stated)
inactive: SK-MEL-5 3.72 µM | HOP-92 10.4 µM | OVCAR-4 26 µM | OVCAR-8 18.6 µM | M14 18.2 µM | SF-295 31.3 µM | A549 26.8 µM | RPMI-8226 5.11 µM | UACC-257 6.67 µM | NCI-H460 20.8 µM | U-251 26.1 µM | SF-539 15.3 µM | Malme-3M 16.6 µM | SNB-19 18.8 µM | KM12 16 µM | SW-620 7.85 µM | CCRF-CEM 2.81 µM

CCOC(=O)Cn1c(=O)n(C)c(=O)c2[nH]cnc21
inactive: SK-MEL-5 > 100 µM | HOP-92 > 100 µM | OVCAR-8 > 100 µM | M14 > 100 µM | A549 > 100 µM | SR > 100 µM | RPMI-8226 > 100 µM | NCI-H460 > 100 µM | U-251 > 100 µM | SF-539 > 100 µM | Malme-3M > 100 µM | SNB-19 > 100 µM | KM12 > 100 µM | SW-620 > 100 µM | CCRF-CEM > 100 µM

Cc1nc2ccncc2[nH]1
inactive: SK-MEL-5 > 100 µM | OVCAR-4 > 100 µM | OVCAR-8 > 100 µM | M14 > 100 µM | SF-295 > 100 µM | A549 > 100 µM | SR > 100 µM | UACC-257 > 100 µM | NCI-H460 > 100 µM | U-251 > 100 µM | SF-539 > 100 µM | Malme-3M > 100 µM | SNB-19 > 100 µM | SW-620 > 100 µM | CCRF-CEM > 100 µM

COc1cccc(Cc2c3cc(OC)ccc3cc[n+]2C)c1
inactive: SK-MEL-5 22.4 µM | OVCAR-4 58.5 µM | OVCAR-8 73.6 µM | M14 67.5 µM | SF-295 > 100 µM | A549 > 100 µM | RPMI-8226 24.7 µM | UACC-257 21.4 µM | NCI-H460 > 100 µM | U-251 53.2 µM | Malme-3M > 100 µM | SNB-19 43.1 µM | KM12 40.5 µM | SW-620 > 100 µM | CCRF-CEM 87.3 µM

C=C=C[P+](c1ccccc1)(c1ccccc1)c1ccccc1
inactive: SK-MEL-5 5.86 µM | OVCAR-4 21.9 µM | OVCAR-8 3.13 µM | M14 6.05 µM | A549 26.8 µM | SR 21.3 µM | RPMI-8226 1.55 µM | UACC-257 7.06 µM | NCI-H460 18.2 µM | U-251 3.56 µM | SF-539 14.8 µM | Malme-3M 13.2 µM | KM12 13 µM | CCRF-CEM 2.94 µM

COC1C(CN[N+](=O)CC2OC3OC(C)(C)OC3C2OC)OC2OC(C)(C)OC21 (configuration not stated)
inactive: SK-MEL-5 > 100 µM | HOP-92 > 100 µM | OVCAR-4 > 100 µM | OVCAR-8 > 100 µM | M14 > 100 µM | SF-295 > 100 µM | A549 > 100 µM | UACC-257 > 100 µM | NCI-H460 > 100 µM | U-251 > 100 µM | SF-539 > 100 µM | Malme-3M > 100 µM | SNB-19 > 100 µM | KM12 > 100 µM | SW-620 > 100 µM | CCRF-CEM > 100 µM

COc1cc2c(cc1O)[C@H](C)C(c1ccc(Cl)cc1)O2 (some centres not stated)
inactive: SK-MEL-5 16.3 µM | HOP-92 17.3 µM | OVCAR-4 32.1 µM | OVCAR-8 > 10 µM | M14 22.2 µM | SF-295 31 µM | A549 24.9 µM | RPMI-8226 6.34 µM | UACC-257 19.8 µM | NCI-H460 17.9 µM | U-251 19.1 µM | SF-539 57.9 µM | Malme-3M 24.6 µM | SNB-19 74.8 µM | KM12 25.2 µM | SW-620 17.4 µM | CCRF-CEM 14.5 µM

NC(CCCC(N)P(=O)(O)O)P(=O)(O)O (configuration not stated)
inactive: SK-MEL-5 > 100 µM | HOP-92 64.7 µM | OVCAR-8 > 100 µM | M14 > 100 µM | SF-295 > 100 µM | A549 > 100 µM | RPMI-8226 > 100 µM | UACC-257 > 100 µM | NCI-H460 > 100 µM | U-251 > 100 µM | SF-539 > 100 µM | Malme-3M > 100 µM | KM12 > 100 µM | SW-620 > 100 µM | CCRF-CEM > 100 µM

O=C(Cc1ccccc1)NN1C(=O)C(Cl)C1c1ccc([N+](=O)[O-])cc1 (configuration not stated)
inactive: SK-MEL-5 49.1 µM | OVCAR-4 55.6 µM | OVCAR-8 > 100 µM | M14 > 100 µM | SF-295 > 100 µM | A549 > 100 µM | SR 32.7 µM | RPMI-8226 23.5 µM | UACC-257 76.4 µM | NCI-H460 > 100 µM | U-251 > 100 µM | Malme-3M > 100 µM | SNB-19 > 100 µM | KM12 > 100 µM | SW-620 > 100 µM | CCRF-CEM > 10 µM

CC12CCC(=O)N1[C@@H](c1ccccc1)[C@@H](c1ccccc1)O2 (some centres not stated)
inactive: SK-MEL-5 > 100 µM | HOP-92 84.7 µM | OVCAR-4 > 100 µM | OVCAR-8 > 100 µM | M14 > 100 µM | SF-295 > 100 µM | A549 > 100 µM | UACC-257 > 100 µM | NCI-H460 > 100 µM | SF-539 > 100 µM | Malme-3M > 100 µM | SNB-19 > 100 µM | KM12 > 100 µM | SW-620 > 100 µM | CCRF-CEM > 100 µM

O=C1CC(O)(c2ccccc2)C(c2ccccc2)=C1c1ccccc1 (configuration not stated)
inactive: SK-MEL-5 39.6 µM | HOP-92 17.3 µM | OVCAR-4 34.1 µM | OVCAR-8 47 µM | M14 35.4 µM | SF-295 32.4 µM | A549 39.1 µM | RPMI-8226 20.7 µM | UACC-257 31.5 µM | NCI-H460 33.2 µM | Malme-3M 46 µM | KM12 37.9 µM | SW-620 94.4 µM | CCRF-CEM 30.1 µM

C/C=C(\NC(=O)C(CCCCN)NC(=O)C(C)NC(=O)C1CSC(C)C(NC(=O)C2CSCC(NC(=O)C(C)NC(=O)C(N)C(C)CC)C(=O)NC(CCCCN)C(=O)NC(Cc3ccccc3)C(=O)NC(CC(C)C)C(=O)N2)C(=O)N2CCCC2C(=O)NCC(=O)N1)C(=O)NCC(=O)NC1CSCC2NC(=O)C(Cc3ccc(O)cc3)NC(=O)C(CSC=CNC2=O)NC(=O)C(CC(N)=O)NC(=O)C(Cc2ccccc2)NC1=O (configuration not stated)
inactive: SK-MEL-5 19.6 µM | OVCAR-4 > 100 µM | OVCAR-8 > 100 µM | M14 > 100 µM | SF-295 > 100 µM | A549 > 100 µM | SR > 100 µM | NCI-H460 75.3 µM | U-251 > 100 µM | SF-539 > 100 µM | SNB-19 > 100 µM | KM12 66.2 µM | SW-620 > 100 µM | CCRF-CEM > 100 µM

Cc1cc(=O)n2c3c(c4c(cc13)c(CO)cc(=O)n4C)OC2
inactive: SK-MEL-5 20.1 µM | HOP-92 24.4 µM | OVCAR-4 17.5 µM | OVCAR-8 6.67 µM | M14 20.6 µM | SF-295 30.3 µM | A549 36.1 µM | RPMI-8226 32.1 µM | UACC-257 26.2 µM | NCI-H460 18 µM | U-251 6.14 µM | SF-539 7.73 µM | Malme-3M 8.65 µM | SNB-19 10.5 µM | KM12 7.94 µM | SW-620 5.71 µM | CCRF-CEM 9.46 µM

Brc1ccc(C[N+]23CN4CN(CN(C4)C2)C3)cc1
inactive: OVCAR-8 28.3 µM | M14 16.9 µM | SF-295 > 100 µM | A549 40.4 µM | SR > 10 µM | RPMI-8226 20.4 µM | UACC-257 30.5 µM | NCI-H460 28.3 µM | U-251 69.3 µM | SF-539 40.3 µM | Malme-3M 26.2 µM | SNB-19 > 100 µM | KM12 > 100 µM | SW-620 22.8 µM | CCRF-CEM 20.5 µM

Cc1cccc(C(C)C)c1N1C(=O)C(=O)C(c2nc3ccccc3o2)C(=O)C1=O
inactive: SK-MEL-5 60.1 µM | HOP-92 > 100 µM | OVCAR-4 > 100 µM | OVCAR-8 > 100 µM | M14 > 100 µM | SF-295 > 100 µM | A549 > 100 µM | SR 70 µM | UACC-257 51.9 µM | NCI-H460 76.7 µM | U-251 89.3 µM | SF-539 > 100 µM | Malme-3M > 100 µM | SNB-19 > 100 µM | KM12 > 100 µM | SW-620 56.8 µM | CCRF-CEM 20.2 µM

CC1C[C@@H]2C(=O)NC(=O)[C@@H]2c2c1c1ccccc1n2C (some centres not stated)
inactive: SK-MEL-5 > 100 µM | HOP-92 > 100 µM | OVCAR-8 > 100 µM | M14 > 100 µM | SF-295 > 100 µM | A549 > 100 µM | RPMI-8226 > 100 µM | UACC-257 > 100 µM | NCI-H460 > 100 µM | U-251 > 100 µM | SF-539 > 100 µM | Malme-3M > 100 µM | SNB-19 > 100 µM | KM12 > 100 µM | SW-620 > 100 µM | CCRF-CEM 97.9 µM
